Experiments:
[1] = target: T1, human recombinant kinase full-length Akt2 (Homo sapiens, UniProt P31751); assay: Akt2 kinase assay (TR-FRET); assay type: biochemical; settings: Akt2 activated by PDK1, 10 μM ATP, 1 μM peptide substrate, 60 min at 22° C.; read-out: IC50 Akt2 (Biological Assay 2.0)
T1 construct: human recombinant kinase full-length Akt2; His; purchased Invitrogen PV 3975; host or cells: insect cells
Source text: Biological Assay 2.0: Akt2 Kinase Assay
Akt2 inhibitory activity of compounds of the present invention was quantified employing the Akt2 TR-FRET assay as described in the following paragraphs.
(§1) His-tagged human recombinant kinase full-length Akt2 expressed in insect cells and activated by PDK1 was purchased form Invitrogen (part number PV 3975). As substrate for the kinase reaction the biotinylated peptide biotin-Ahx-KKLNRTLSFAEPG (C-terminus in amide form) was used which can be purchased e.g. from the company Biosynthan GmbH (Berlin-Buch, Germany). For the assay 50 nl of a 100 fold concentrated solution of the test compound in DMSO was pipetted into a black low volume 384 well microtiter plate (Greiner Bio-One, Frickenhausen, Germany), 2 μl of a solution of Akt2 in assay buffer [50 mM TRIS/HCl pH 7.5, 5 mM MgCl2, 1 mM dithiothreitol, 0.02% (v/v) Triton X-100 (Sigma)] were added and the mixture was incubated for 15 min at 22° C. to allow pre-binding of the test compounds to the enzyme before the start of the kinase reaction. Then the kinase reaction was started by the addition of 3 μl of a solution of adenosine-tri-phosphate (ATP, 16.7 μM=>final conc. in the 5 μl assay volume is 10 μM) and substrate (1.67 μM=>final conc. in the 5 μl assay volume is 1 μM) in assay buffer and the resulting mixture was incubated for a reaction time of 60 min at 22° C. The concentration of Akt2 in the assay was adjusted depending of the activity of the enzyme lot and was chosen appropriate to have the assay in the linear range, typical enzyme concentrations were in the range of about 0.2 ng/μl (final conc. in the 5 μl assay volume).
(§2) The reaction was stopped by the addition of 5 μl of a solution of HTRF detection reagents (200 nM streptavidine-XL665 [Cisbio] and 1.5 nM anti-phosho-Serine antibody [Millipore, cat. #35-001] and 0.75 nM LANCE Eu-W 1024 labeled anti-mouse IgG antibody [Perkin Elmer]) in an aqueous EDTA-solution (100 mM EDTA, 0.1% (w/v) bovine serum albumin in 50 mM HEPES/NaOH pH 7.5). The resulting mixture was incubated 1 h at 22° C. to allow the binding of the biotinylated phosphorylated peptide to the streptavidine-XL665 and the antibodies. Subsequently the amount of phosphorylated substrate was evaluated by measurement of the resonance energy transfer from the anti-mouse-IgG-Eu-Chelate to the streptavidine-XL665. Therefore, the fluorescence emissions at 620 nm and 665 nm after excitation at 350 nm was measured in a TR-FRET reader, e.g. a Rubystar (BMG Labtechnologies, Offenburg, Germany) or a Viewlux (Perkin-Elmer). The ratio of the emissions at 665 nm and at […] was taken as the measure for the amount of phosphorylated substrate. The data were normalised (enzyme reaction without inhibitor=0% inhibition, all other assay components but no enzyme=100% inhibition).

[2] = target: T2, human recombinant kinase full-length Akt1 (Homo sapiens, UniProt P31749); assay: Akt1 kinase assay (TR-FRET); assay type: biochemical; settings: 10 μM ATP, 1 μM peptide substrate, 60 min at 22° C.; read-out: IC50 Akt1 Biological Assay 1.0)
T2 construct: human recombinant kinase full-length Akt1; His; purchased Invitrogen PV 3599; host or cells: insect cells
T2 sequence (P31749 whole entry): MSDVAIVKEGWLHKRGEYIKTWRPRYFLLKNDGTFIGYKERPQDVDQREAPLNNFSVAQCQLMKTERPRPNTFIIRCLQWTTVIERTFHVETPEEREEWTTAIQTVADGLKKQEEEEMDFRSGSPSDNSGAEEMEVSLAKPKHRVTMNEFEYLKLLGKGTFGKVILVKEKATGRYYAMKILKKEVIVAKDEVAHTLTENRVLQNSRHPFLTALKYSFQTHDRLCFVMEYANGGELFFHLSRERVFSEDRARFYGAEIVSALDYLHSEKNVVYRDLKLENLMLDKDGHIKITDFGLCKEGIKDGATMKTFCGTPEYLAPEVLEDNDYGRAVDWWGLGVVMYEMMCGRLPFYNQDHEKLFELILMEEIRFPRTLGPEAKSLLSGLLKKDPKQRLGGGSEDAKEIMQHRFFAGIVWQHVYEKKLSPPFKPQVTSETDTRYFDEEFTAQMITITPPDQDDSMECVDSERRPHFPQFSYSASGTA
Source text: Biological Assay 1.0: Akt1 Kinase Assay
Akt1 inhibitory activity of compounds of the present invention may be quantified employing the Akt1 TR-FRET assay as described in the following paragraphs.
His-tagged human recombinant kinase full-length Akt1 expressed in insect cells was purchased form Invitrogen (part number PV 3599). As substrate for the kinase reaction the biotinylated peptide biotin-Ahx-KKLNRTLSFAEPG (C-terminus in amide form) was used which can be purchased e.g. from the company Biosynthan GmbH (Berlin-Buch, Germany).
as §1, with “For” for “His-tagged human recombinant kinase full-length Akt2 expressed in insect cells and activated by PDK1 was purchased form Invitrogen (part number PV 3975). As substrate for the kinase reaction the biotinylated peptide biotin-Ahx-KKLNRTLSFAEPG (C-terminus in amide form) was used which can be purchased e.g. from the company Biosynthan GmbH (Berlin-Buch, Germany). For”, “Akt1” for “Akt2”, “0.05” for “0.2”
as §2, with “HTRF” for “TR-FRET”, “inhibition). Normally test compound were tested on the same microtiter plate at 10 different concentrations in the range of 20 μM to 1 nM (20 μM, 6.7 μM, 2.2 μM, 0.74 μM, 0.25 μM, 82 nM, 27 nM, 9.2 nM, 3.1 nM and 1 nM, dilution series prepared before the assay at the level of the 100 fold conc. stock solutions by serial 1:3 dilutions) in duplicate values for each concentration and […] were calculated by a 4 parameter fit using an inhouse software.” for “inhibition).”

[3] = tested on: Akt phosphorylation (Ser473) in MCF7 cells; assay: Cellular PI3K/Akt pathway assay (Phospho-Akt1 (Ser473) sandwich ELISA); assay type: cell-based; settings: Homo sapiens, β-Heregulin stimulated, 48 h incubation, read-out: IC50 p-Akt (Biological Assay 5.0)
Method: Biological Assay 5.0: Cellular PI3K/Akt Pathway Assay
In order to study the cellular activity of the compounds according to the present invention, an Enzyme Linked Immunosorbent Assay (ELISA)-based assay may be used to investigate the inhibitory effect on Akt phosphorylation.
The ELISA Kit detects endogenous levels of phosphorylated Akt protein. […] After incubation with cell lysates, the coated antibody captures the phosphorylated Akt protein. […] The magnitude of optical density for this developed color is proportional to the quantity of phosphorylated Akt protein. MCF7 cells (ATCC HTB-22) are seeded into 96 well fate bottom plates at a density of 10000 cells/well. 24 hours after seeding, the cells are serum starved using low-serum medium (IMEM media including 0.1% charcoal treated FCS (FCS: fetal calf serum)). After 24 hours 1 μl each of the compound dilutions (test compounds were dissolved as 10 mM solutions in dimethylsulfoxide (DMSO) and subsequently diluted) are added into each well of the 96 well plates and incubated for 48 h at 37° C. in a humidified athmosphere containing 5% CO2. To stimulate Akt phosphorylation, β-Heregulin (20 ng/mL β-HRG) is added in parallel to the compounds. Wells containing unstimulated control cells (no β-Heregulin stimulation) are incubated with or without the diluted compound. Wells containing untreated control cells (no compound) are filled with medium containing 0.5% v:v DMSO and are or are not stimulated with 3-Heregulin.
Cells are harvested and lysed with brief sonification in 1× cell lysis buffer (20 mM Tris (pH7.5), 150 mM NaCl, 1 mM ethylene diaminetetraacetate (EDTA), 1 mM ethylene glycolbis(2-aminoethyl)-N,N,N′,N′-tetraacetic acid (EGTA), 1 vol % Triton X-100, 2.5 mM sodium pyrophosphate, 1 mM β-glycerolphosphate, 1 mM Na3VO4, 1 μg/mL leupeptin). The lysate is centrifuged for 10 min. at 4° C. and the supernatant is transferred to a new tube. […] The absorbance is measured at λ=450 nm (Wallac Victor2; Perkin Elmer, USA) within 30 min. after adding the STOP solution. […]

T1 sequence (P31751 whole entry): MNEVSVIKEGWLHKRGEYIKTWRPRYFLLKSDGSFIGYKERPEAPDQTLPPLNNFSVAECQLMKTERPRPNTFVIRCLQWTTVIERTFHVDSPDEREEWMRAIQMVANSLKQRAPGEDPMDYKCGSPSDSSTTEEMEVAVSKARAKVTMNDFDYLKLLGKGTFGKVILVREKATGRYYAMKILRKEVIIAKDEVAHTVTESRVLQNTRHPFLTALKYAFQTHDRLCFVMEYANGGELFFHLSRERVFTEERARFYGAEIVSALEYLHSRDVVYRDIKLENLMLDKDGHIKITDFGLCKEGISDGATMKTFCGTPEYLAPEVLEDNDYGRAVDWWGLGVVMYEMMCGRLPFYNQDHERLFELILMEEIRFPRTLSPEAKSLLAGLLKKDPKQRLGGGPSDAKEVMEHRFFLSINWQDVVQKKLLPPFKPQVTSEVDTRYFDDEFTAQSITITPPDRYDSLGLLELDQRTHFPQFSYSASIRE

Compound | IC50 [1] | IC50 [2] | IC50 [3]
Cc1ccc(-c2nc(C3CCN(Cc4ccc(-c5ncn6ccnc6c5-c5ccccc5)cc4)CC3)n[nH]2)nc1C [Example 10.0, 7-(4-{4-[5-(5,6-dimethyl-pyridin-2-yl)-1H-[1,2,4]triazol-3-yl]-piperidin-1-ylmethyl}-phenyl)-8-phenyl-imidazo[1,2-c]pyrimidine] | 38 nM | 7 nM | –
Cc1nnc2c(-c3ccccc3)c(-c3ccc(CN4CCC(c5n[nH]c(-c6ccccn6)n5)CC4)cc3)ncn12 [Example 4.0, 3-methyl-8-phenyl-7-{4-[4-(5-pyridin-2-yl-1H-[1,2,4]triazol-3-yl)-piperidin-1-ylmethyl]-phenyl}-[1,2,4]triazolo[4,3-c]pyrimidine] | – | – | < 500 nM
Cc1ccc(-c2nc(C3CCN(Cc4ccc(-c5ncn6ccnc6c5-c5ccccc5)cc4)CC3)n[nH]2)nc1 [Example 12.0, 7-(4-{4-[5-(5-methyl-pyridin-2-yl)-1H-[1,2,4]triazol-3-yl]-piperidin-1-ylmethyl}-phenyl)-8-phenyl-imidazo[1,2-c]pyrimidine] | 50 nM | 8 nM | –
Cc1ccc(-c2nc(C3CCN(Cc4ccc(-c5nc(C)n6ccnc6c5-c5ccccc5)cc4)CC3)n[nH]2)nc1C [Example 5.0, 7-(4-{4-[5-(5,6-dimethyl-pyridin-2-yl)-1H-[1,2,4]triazol-3-yl]-piperidin-1-ylmethyl}-phenyl)-5-methyl-8-phenyl-imidazo[1,2-c]pyrimidine] | 27 nM | 3 nM | –
Cc1nc(-c2ccc(CN3CC(c4n[nH]c(-c5ccccn5)n4)C3)cc2)c(-c2ccccc2)c2nccn12 [Example 6.0, 5-methyl-8-phenyl-7-{4-[3-(5-pyridin-2-yl-1H-[1,2,4]triazol-3-yl)-azetidin-1-ylmethyl]-phenyl}-imidazo[1,2-c]pyrimidine] | 81 nM | 3 nM | –
Fc1ccc(-c2nc(C3CCN(Cc4ccc(-c5ncn6ccnc6c5-c5ccccc5)cc4)CC3)n[nH]2)nc1 [Example 11.1, 7-(4-{4-[5-(5-fluoro-pyridin-2-yl)-1H-[1,2,4]triazol-3-yl]-piperidin-1-ylmethyl}-phenyl)-8-phenyl-imidazo[1,2-c]pyrimidine] | 98 nM | 19 nM | –
Cc1nc(-c2ccc(CN3CCC(c4n[nH]c(-c5cnccn5)n4)CC3)cc2)c(-c2ccccc2)c2nccn12 [Example 7.0, 5-methyl-8-phenyl-7-{4-[4-(5-pyrazin-2-yl-1H-[1,2,4]triazol-3-yl)-piperidin-1-ylmethyl]-phenyl}-imidazo[1,2-c]pyrimidine] | 334 nM | 12 nM | –
c1ccc(-c2c(-c3ccc(CN4CCC(c5n[nH]c(-c6cnccn6)n5)CC4)cc3)ncn3ccnc23)cc1 [Example 11.0, 8-phenyl-7-{4-[4-(5-pyrazin-2-yl-1H-[1,2,4]triazol-3-yl)-piperidin-1-ylmethyl]-phenyl}-imidazo[1,2-c]pyrimidine] | 445 nM | 29 nM | –
Clc1cccc(-c2nc(C3CCN(Cc4ccc(-c5ncn6ccnc6c5-c5ccccc5)cc4)CC3)n[nH]2)n1 [Example 13.0, 7-(4-{4-[5-(6-chloro-pyridin-2-yl)-1H-[1,2,4]triazol-3-yl]-piperidin-1-ylmethyl}-phenyl)-8-phenyl-imidazo[1,2-c]pyrimidine] | 132 nM | 16 nM | –
c1ccc(-c2c(-c3ccc(CN4CC(c5n[nH]c(-c6ccccn6)n5)C4)cc3)ncn3ccnc23)cc1 [Example 16.0, 8-phenyl-7-{4-[3-(5-pyridin-2-yl-1H-[1,2,4]triazol-3-yl)-azetidin-1-ylmethyl]-phenyl}-imidazo[1,2-c]pyrimidine] | 52 nM | 12 nM | –
Cc1cc(C)nc(-c2nc(C3CCN(Cc4ccc(-c5ncn6ccnc6c5-c5ccccc5)cc4)CC3)n[nH]2)c1 [Example 14.0, 7-(4-{4-[5-(4,6-dimethyl-pyridin-2-yl)-1H-[1,2,4]triazol-3-yl]-piperidin-1-ylmethyl}-phenyl)-8-phenyl-imidazo[1,2-c]pyrimidine] | 16 nM | 7 nM | –
FC(F)(F)c1ccnc(-c2nc(C3CCN(Cc4ccc(-c5ncn6ccnc6c5-c5ccccc5)cc4)CC3)n[nH]2)c1 [Example 15.0, 8-phenyl-7-(4-{4-[5-(4-trifluoromethyl-pyridin-2-yl)-1H-[1,2,4]triazol-3-yl]-piperidin-1-ylmethyl}-phenyl)-imidazo[1,2-c]pyrimidine] | 222 nM | 22 nM | –
Brc1ccc(-c2nc(C3CCN(Cc4ccc(-c5ncn6ccnc6c5-c5ccccc5)cc4)CC3)n[nH]2)nc1 [Example 9.0, 7-(4-{4-[5-(5-bromo-pyridin-2-yl)-1H-[1,2,4]triazol-3-yl]-piperidin-1-ylmethyl}-phenyl)-8-phenyl-imidazo[1,2-c]pyrimidine] | 185 nM | 18 nM | –
Cc1nc(-c2ccc(CN3CCC(c4n[nH]c(-c5ncccn5)n4)CC3)cc2)c(-c2ccccc2)c2nccn12 [Example 8.0, 5-methyl-8-phenyl-7-{4-[4-(5-pyrimidin-2-yl-1H-[1,2,4]triazol-3-yl)-piperidin-1-ylmethyl]-phenyl}-imidazo[1,2-c]pyrimidine] | 414 nM | 14 nM | –

Source: patent US20130310362A1, “FUSED PYRIMIDINES” (BAYER PHARMA AKTIEGESELLSCHAFT, priority 2009, published 2013)
